Measurements published in paper PMC5900025, “Naphthoquinone Derivatives as Scaffold to Develop New Drugs for Tuberculosis Treatment” (Frontiers in Microbiology, 2018).
Converted amounts (≈) assume the structure as drawn. Like-named read-outs stand apart in the source and are kept apart here.

Legend:
Type in all cases: cell-based
[1] = test system: three M. tuberculosis strains (H37Rv, INHR, RMPR); assay: microbe, parasite or virus in culture; conditions: Mycobacterium tuberculosis, stated for all three strains together
[2] = test system: M. tuberculosis pan-susceptible H37Rv (ATCC 27294); assay: microbe, parasite or virus in culture; conditions: REMA, 7 days at 37°C
[3] = test system: J774A.1 macrophage cell line (ATCC TIB-67); assay: Cytotoxicity assay (resazurin); conditions: Mus musculus, J774.A1
[4] = Mycobacterium tuberculosis, 168 h, read-out: MIC
[5] = J774A.1 cells, concentration maintaining viability of 50% of the cells
[6] = Mycobacterium tuberculosis, 168 h

| SMILES | MIC [1] [µM] | MIC [2, 4] [µM] | IC50 [3] [µM] | IC50 [3, 5] [µM] | MIC [2, 6] [µM] | MIC ([2]; read-out: MIC) [µM] |
| --- | --- | --- | --- | --- | --- | --- |
| O=C1C(Cl)=C(Cl)C(=O)c2ccccc21 [Compound 1, 2,3-Dichloronaphthalene-1,4-dione] | 111 (≈ 25.1 µg/mL) | 111 (≈ 25.1 µg/mL) | 103 | – | – | – |
| CC1(C)CCC2=C(O1)C(=O)c1ccccc1C2=O [Compound 2, 2,2-Dimethyl-3,4-dihydro-2H-benzo[g]chromene-5, 10-dione] | 103 to 207 (≈ 25 to 50.1 µg/mL) | 103 (≈ 25 µg/mL) | – | 285 | – | – |
| CC1(C)CC2=C(O1)C(=O)c1ccccc1C2=O [Compound 3, 2,2-Dimethyl-2,3-dihydronaphtho[2,3-b]furan-4,9-dione] | 54.8 (≈ 12.5 µg/mL) | 54.8 (≈ 12.5 µg/mL) | – | > 877 | – | – |
| C=CCOC1=CC(=O)c2ccccc2C1=O [Compound 4, 2-(Allyloxy)naphthalene-1,4-dione] | – | – | – | 173 | 58.4 (≈ 12.5 µg/mL) | – |
| NC1=CC(=O)c2ccccc2C1=O [Compound 5, 2-Aminonaphthalene-1,4-dione] | – | 72.2 (≈ 12.5 µg/mL) | > 1160 | – | – | – |
| O=C1C=C(Nc2ccccc2)C(=O)c2ccccc21 [Compound 6, 2-(Phenylamino)naphthalene-1,4-dione] | – | – | – | > 803 | 110 (≈ 27.5 µg/mL) | 100.4 (≈ 25 µg/mL) |
| NNC(=O)c1ccncc1 [INH, isoniazid, reference compound] | – | 0.438 (≈ 0.0601 µg/mL) | – | 3730 | – | – |
| CO[C@H]1/C=C/O[C@@]2(C)Oc3c(C)c(O)c4c(O)c(c(/C=N/N5CCN(C)CC5)c(O)c4c3C2=O)NC(=O)/C(C)=C\C=C\[C@H](C)[C@H](O)[C@@H](C)[C@@H](O)[C@@H](C)[C@H](OC(C)=O)[C@@H]1C [RIF, rifampicin, reference compound] | – | 0.608 (≈ 0.5 µg/mL) | – | > 2490 | – | – |
